Test results reported in publication PMC5218472 (PLoS Biology, 2017).
Residues, ends and D or L forms follow the SMILES beside them. *: point of attachment. X1 = CC(=O)N[C@@H]1[C@@H](O)[C@H](O[C@@H]2O[C@H](CO)[C@@H](O[C@@H]3O[C@H](CO[C@H]4O[C@H](CO)[C@@H](O)[C@H](O)[C@@H]4O[C@@H]4O[C@H](CO)[C@@H](O[C@@H]5O[C@H](CO)[C@H](O)[C@H](O)[C@H]5O)[C@H](O)[C@H]4NC(C)=O)[C@@H](O)[C@H](O[C@H]4O[C@H](CO)[C@@H](O)[C@H](O)[C@@H]4O[C@@H]4O[C@H](CO)[C@@H](O[C@@H]5O[C@H](CO)[C@H](O)[C@H](O)[C@H]5O)[C@H](O)[C@H]4NC(C)=O)[C@@H]3O)[C@H](O)[C@H]2NC(C)=O)[C@@H](CO)O[C@H]1N*; αGalNAc = CC(=O)N[C@@H]1[C@@H](O)[C@@H](O)[C@@H](CO)O[C@@H]1*

What was measured:
ADAM10 / ADAM17 [1] = test: PMA-induced shedding of IL-6R-5N in HEK293 cells after pretreatment with inhibitors GI or GW, ELISA (Fig 9D); assay type: cell-based, human; conditions: HEK293, IL-6R-5N; PMA stimulation, GI or GW given as pretreatment before PMA; mean of n = 3
Method: (§1) Fig 9 An IL-6R devoid of all N-glycans is defective in ADAM17-mediated proteolysis. (A) PMA-mediated ectodomain shedding of IL-6R-5N with a stably transduced Ba/F3-gp130 cell line. Data shown are the mean ± SD from three independent experiments compared to wild-type IL-6R. (B) HEK293 cells were transiently transfected with a cDNA encoding wild-type IL-6R. Cells were pretreated with the ADAM10-specific inhibitor GI or the combined ADAM10/ADAM17-specific inhibitor GW for 30 min and then stimulated with 100 nM PMA for 2 h as indicated. The amount of sIL-6R in the cell supernatant was determined by ELISA. One out of three experiments with similar outcomes is shown (mean ± SD, n = 3). (C) The experiment was performed as described under (B), but sIL-6R was precipitated from cell supernatant and analyzed by western blot. Furthermore, the cells were lysed, and IL-6R expression in the lysates was also determined by western blot. β-actin served as loading control. […] (D, E) The experiment was performed as described in […], but HEK293 cells were transiently transfected with a cDNA encoding IL-6R-5N. nd, not detected. (F) Cell-surface expression of the IL-6R-5N variant on transiently transfected HEK293 cells analyzed via flow cytometry (black histogram). […] The expression of all proteins (input) and the interaction of the IL-6R variants with MPD17-CANDIS were analyzed via western blot. […]

ADAM10 / ADAM17 [2] = test: PMA-induced shedding of wild-type IL-6R in HEK293 cells after pretreatment with inhibitors GI or GW, ELISA (Fig 9B); assay type: cell-based, human; conditions: HEK293, wild-type IL-6R; PMA stimulation, GI or GW given as pretreatment before PMA; mean of n = 3
Method: as §1

[3] = In vitro cleavage assay of IL-6R (glyco)peptides with recombinant ADAM17; conditions: human, isolated enzyme; 50 μM peptide, 25 mM Hepes pH 9.0, recombinant catalytic domain of ADAM17, 16 h, 37°C, reverse phase C18 chromatography, peak areas; mean of 3 independent experiments; read-out: intact peptide after incubation with ADAM17 (untreated peptide = 100), mean
Method: (§2) Fig 7 The N- and O-glycosylated sequon adjacent to the cleavage site is of minor importance for IL-6R cleavage. (A) Amino-acid sequence of the two unglycosylated peptides 1(QD) and 2(QA). Peptides were incubated either with or without recombinant ADAM17 for 16 h at 37°C, and the amount of cleaved peptide was analyzed by reversed-phase (RP) chromatography. (B) Amino-acid sequence of the two glycopeptides 3(QD) and 4(QA), which have a GlcNAc attached to the amino-acid residue corresponding to Asn-350 of the IL-6R. Cleavage was determined as described in panel (A). (C) Amino-acid sequence of the two glycopeptides 5(QD) and 6(QA), which have a biantennary N-glycan attached to the amino-acid residue corresponding to Asn-350 of the IL-6R. Cleavage was determined as described in panel (A). (D) Amino-acid sequence of the two glycopeptides 7(QD) and 8(QA), which have a GalNAc attached to the amino-acid residue corresponding toThr-352 of the IL-6R. Cleavage was determined as described in panel (A). (E) Amino-acid sequence of the two glycopeptides 9(QD) and 10(QA), which have a biantennary N-glycan attached to the amino-acid residue corresponding to Asn-350 and a GalNAc attached to the amino-acid residue corresponding toThr-352 of the IL-6R. Cleavage was determined as described in panel (A). All data shown are the mean ± SD from three independent experiments (*p < 0.05, **p < 0.01, ***p < 0.001, compared to the untreated peptide; ^§p < 0.05, compared to the cleaved nonglycosylated peptide).
(§3) Two 1.5 ml reaction tubes were filled with 50 μl peptide (50 μM) solved in 25 mM Hepes (pH 9.0), and 0.5 μl of the recombinant catalytic domain of ADAM17 was added to one of the reaction tubes, whereas the other sample remained untreated. All samples were incubated for 16 h at 37°C. Afterwards, 1,150 μl 0.1% TFA was added to each sample, and the peptides were separated on a reverse phase chromatography column (Multo High Bio-200-C18) from Chromatographie Service (Langerwehe, Germany) using a linear gradient elution with a binary solvent system and a flow rate of 1 ml/min. Solvent A consisted of 0.1% TFA, and solvent B consisted of 100% ACN. After peak integration, peak areas for cleaved and noncleaved peptides were determined.

[4] = biological target: T1, recombinant catalytic domain of ADAM17 (Homo sapiens, UniProt P78536); test: as above; conditions: 50 μM peptide, 25 mM Hepes pH 9.0, 16 h, 37°C, RP chromatography
T1 construct: catalytic domain (aa Pro-18 to Val-477) of ADAM17; purchased Enzo Life Sciences GmbH (Lörrach, Germany)
T1 sequence (P78536 18-477): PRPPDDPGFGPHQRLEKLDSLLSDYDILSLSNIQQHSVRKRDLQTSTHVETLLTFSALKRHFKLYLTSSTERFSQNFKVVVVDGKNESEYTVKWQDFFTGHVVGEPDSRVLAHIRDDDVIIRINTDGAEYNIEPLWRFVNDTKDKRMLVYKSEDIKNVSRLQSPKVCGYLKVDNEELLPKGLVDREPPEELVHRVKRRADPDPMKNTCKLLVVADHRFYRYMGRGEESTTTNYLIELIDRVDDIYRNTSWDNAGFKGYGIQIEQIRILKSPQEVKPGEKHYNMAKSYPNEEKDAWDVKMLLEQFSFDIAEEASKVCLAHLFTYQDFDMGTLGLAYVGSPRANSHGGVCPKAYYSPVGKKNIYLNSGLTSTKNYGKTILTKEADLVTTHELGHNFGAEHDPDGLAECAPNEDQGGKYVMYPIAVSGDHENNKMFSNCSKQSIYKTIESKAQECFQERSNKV
Method: as §2, §3

[5] = test system: recombinant catalytic domain of ADAM17; test: recombinant catalytic domain of ADAM17 in 25 mM Hepes (pH 9.0); conditions: 37°C, up to 16 h

Row | Compound | remaining at 16 h [3] [%] | cleavage by recombinant ADAM17, in words [4] | also measured
1 | CCCCCCCCCCCCCC(=O)O[C@@H]1[C@@H](C)[C@@]2(O)[C@@H](C=C(CO)C[C@]3(O)C(=O)C(C)=C[C@@H]23)[C@@H]2C(C)(C)[C@]12OC(C)=O [PMA, phorbol-12-myristate-13-acetate] | – | – | sIL-6R in supernatant (ELISA), Figure 9D, mean (ADAM10 / ADAM17 [1]): 0; sIL-6R in supernatant (ELISA), Figure 9B, mean (ADAM10 / ADAM17 [2]): 71566.4
2 | CC[C@H](C)[C@H](NC(=O)[C@@H](N)CC(N)=O)C(=O)N[C@@H](CC(C)C)C(=O)N[C@@H](Cc1ccccc1)C(=O)N[C@@H](CCCNC(=N)N)C(=O)N[C@@H](CC(=O)O)C(=O)N[C@@H](CO)C(=O)N[C@@H](C)C(=O)N[C@@H](CC(=O)N[C@@H]1O[C@H](CO)[C@@H](O[C@@H]2O[C@H](CO)[C@@H](O[C@@H]3O[C@H](CO[C@H]4O[C@H](CO)[C@@H](O)[C@H](O)[C@@H]4O[C@@H]4O[C@H](CO)[C@@H](O[C@@H]5O[C@H](CO)[C@H](O)[C@H](O)[C@H]5O)[C@H](O)[C@H]4NC(C)=O)[C@@H](O)[C@H](O[C@H]4O[C@H](CO)[C@@H](O)[C@H](O)[C@@H]4O[C@@H]4O[C@H](CO)[C@@H](O[C@@H]5O[C@H](CO)[C@H](O)[C@H](O)[C@H]5O)[C@H](O)[C@H]4NC(C)=O)[C@@H]3O)[C@H](O)[C@H]2NC(C)=O)[C@H](O)[C@H]1NC(C)=O)C(=O)N[C@@H](C)C(=O)N[C@H](C(=O)N[C@@H](CO)C(=O)N[C@@H](CC(C)C)C(=O)N1CCC[C@H]1C(=O)N[C@H](C(=O)N[C@@H](CCC(N)=O)C(=O)N[C@@H](CC(=O)O)C(=O)N[C@@H](CO)C(=O)N[C@@H](CO)C(=O)N[C@@H](CO)C(=O)N[C@H](C(=O)N1CCC[C@H]1C(=O)N[C@@H](CC(C)C)C(=O)N1CCC[C@H]1C(=O)O)C(C)C)C(C)C)[C@@H](C)O[C@H]1O[C@H](CO)[C@H](O)[C@H](O)[C@H]1NC(C)=O [9(QD)] (H-NILFRDSAD(X1)AT(αGalNAc)SLPVQDSSSVPLP-OH; N-terminus and C-terminus assumed) | 95.6 | again blocked | –
3 | CNC(=O)[C@@H](NC(=O)[C@H](CCCc1ccccc1)[C@H](C)N(O)C=O)C(C)(C)C [GI] | – | – | sIL-6R in supernatant (ELISA), Figure 9D, mean (ADAM10 / ADAM17 [1]): 0; sIL-6R in supernatant (ELISA), Figure 9B, mean (ADAM10 / ADAM17 [2]): 48715.8
4 | NILFRDSANATSLPVQDSSSVPLP [9(QD)] | – | – | not cleaved [5]: cleavage blocked; mean 95.585% intact after 16 h
5 | CC[C@H](C)[C@H](NC(=O)[C@@H](N)CC(N)=O)C(=O)N[C@@H](CC(C)C)C(=O)N[C@@H](Cc1ccccc1)C(=O)N[C@@H](CCCNC(=N)N)C(=O)N[C@@H](CC(=O)O)C(=O)N[C@@H](CO)C(=O)N[C@@H](C)C(=O)N[C@@H](CC(=O)N[C@@H]1O[C@H](CO)[C@@H](O[C@@H]2O[C@H](CO)[C@@H](O[C@@H]3O[C@H](CO[C@H]4O[C@H](CO)[C@@H](O)[C@H](O)[C@@H]4O[C@@H]4O[C@H](CO)[C@@H](O[C@@H]5O[C@H](CO)[C@H](O)[C@H](O)[C@H]5O)[C@H](O)[C@H]4NC(C)=O)[C@@H](O)[C@H](O[C@H]4O[C@H](CO)[C@@H](O)[C@H](O)[C@@H]4O[C@@H]4O[C@H](CO)[C@@H](O[C@@H]5O[C@H](CO)[C@H](O)[C@H](O)[C@H]5O)[C@H](O)[C@H]4NC(C)=O)[C@@H]3O)[C@H](O)[C@H]2NC(C)=O)[C@H](O)[C@H]1NC(C)=O)C(=O)N[C@@H](C)C(=O)N[C@H](C(=O)N[C@@H](CO)C(=O)N[C@@H](CC(C)C)C(=O)N1CCC[C@H]1C(=O)N[C@H](C(=O)N[C@@H](CCC(N)=O)C(=O)N[C@@H](C)C(=O)N[C@@H](CO)C(=O)N[C@@H](CO)C(=O)N[C@@H](CO)C(=O)N[C@H](C(=O)N1CCC[C@H]1C(=O)N[C@@H](CC(C)C)C(=O)N1CCC[C@H]1C(=O)O)C(C)C)C(C)C)[C@@H](C)O [6(QA)] (H-NILFRDSAD(X1)ATSLPVQASSSVPLP-OH; N-terminus and C-terminus assumed) | 2.44 | did not alter processing | –
6 | NILFRDSANATSLPVQDSSSVPLP [5(QD)] | – | – | not cleaved [5]: cleavage blocked; mean 101.852% intact after 16 h
7 | CC[C@H](C)[C@H](NC(=O)[C@@H](N)CC(N)=O)C(=O)N[C@@H](CC(C)C)C(=O)N[C@@H](Cc1ccccc1)C(=O)N[C@@H](CCCNC(=N)N)C(=O)N[C@@H](CC(=O)O)C(=O)N[C@@H](CO)C(=O)N[C@@H](C)C(=O)N[C@@H](CC(=O)N[C@@H]1O[C@H](CO)[C@@H](O[C@@H]2O[C@H](CO)[C@@H](O[C@@H]3O[C@H](CO[C@H]4O[C@H](CO)[C@@H](O)[C@H](O)[C@@H]4O[C@@H]4O[C@H](CO)[C@@H](O[C@@H]5O[C@H](CO)[C@H](O)[C@H](O)[C@H]5O)[C@H](O)[C@H]4NC(C)=O)[C@@H](O)[C@H](O[C@H]4O[C@H](CO)[C@@H](O)[C@H](O)[C@@H]4O[C@@H]4O[C@H](CO)[C@@H](O[C@@H]5O[C@H](CO)[C@H](O)[C@H](O)[C@H]5O)[C@H](O)[C@H]4NC(C)=O)[C@@H]3O)[C@H](O)[C@H]2NC(C)=O)[C@H](O)[C@H]1NC(C)=O)C(=O)N[C@@H](C)C(=O)N[C@H](C(=O)N[C@@H](CO)C(=O)N[C@@H](CC(C)C)C(=O)N1CCC[C@H]1C(=O)N[C@H](C(=O)N[C@@H](CCC(N)=O)C(=O)N[C@@H](CC(=O)O)C(=O)N[C@@H](CO)C(=O)N[C@@H](CO)C(=O)N[C@@H](CO)C(=O)N[C@H](C(=O)N1CCC[C@H]1C(=O)N[C@@H](CC(C)C)C(=O)N1CCC[C@H]1C(=O)O)C(C)C)C(C)C)[C@@H](C)O [5(QD)] (H-NILFRDSAD(X1)ATSLPVQDSSSVPLP-OH; N-terminus and C-terminus assumed) | 102 | blocked cleavage | –
